Results reported in patent US12459951B2, “Compounds that interact with RAS superfamily proteins for treatment of cancers, inflammatory diseases, rasopathies, and fibrotic disease” (SHY Therapeutics, LLC, priority 2022, dated 2025).

What was measured:
[1] = tested on: Erk1/2 phosphorylation; test: Erk1/2 Phosphorylation Assay (western blot), Panc-1; type: cell-based, human; conditions: at 10 μM, * = activation
Method in brief: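 KRas G12D Panc-1 cells were treated 6 h at 37° C with compound at 10 μM or serial dilutions for IC50 (0.3% DMSO). In method 1, cells were serum-starved overnight (0.5% FBS) and then given 1.5 ng/ml EGF for 15 min. In method 2, cells stayed in 10% FBS without stimulation. Lysate phospho-Erk1/2 (Thr202/Tyr204) was read by western blot.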

[2] = tested on: TNF-alpha; test: TNF-alpha Quantification Assay (ELISA), LPS-stimulated RAW 264.7; type: cell-based; parameters: inhibition: dose or concentration left out as unconfirmed; conditions: Mus musculus, RAW264.7, read-out: TNFα: % inh.
[3] = tested on: IL6; test: IL-6 Quantification Assay (ELISA), LPS-stimulated RAW 264.7; type: cell-based; parameters: inhibition: dose or concentration left out as unconfirmed; conditions: Mus musculus, RAW264.7; read-out: IL-6: % inh.
[4] = tested on: Smad2/Smad3 phosphorylation; test: Phospho-Smad2/3 Inhibition Assay (western blot), Panc-1; type: cell-based, human; conditions: at 10 μM, Panc-1 pancreatic cancer cell line; starred symbols = activation
Method in brief: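 Panc-1 cells (KRas G12D), starved overnight in 0.5% FBS, treated 3 h at 37° C with compound at 10 μM final (0.3% DMSO) or serial dilutions for IC50, then stimulated with 10 ng/ml TGF-b1 for 1 h. Phospho-Smad2 (Ser465/467) and phospho-Smad3 (Ser423/425) detected by western blot.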

Compound	% inh of Erk1/2 phosphorylation in Panc-1 [1]	inhibition at 10 µM [2] [%]	inhibition [3] [%]	% inh of Smad2/3 phosphorylation in Panc-1 [4]	inhibition [2] [%]
Cc1c(-c2ccn(C)n2)cn2nc(-c3nccn3C)nc(Nc3cc(-n4ccnc4)ccn3)c12 [Compound 245, N-(4-(1H-imidazol-1-yl)pyridin-2-yl)-5-methyl-2-(1-methyl-1H-imidazol-2-yl)-6-(1-methyl-1H-pyrazol-3-yl)pyrrolo[2,1-f][1,2,4]triazin-4-amine]	0 (0% inhibition)	0	25 to 49	B* (B* = 26-45% activation)	–
Cc1c(-c2ccn(C)n2)cn2nc(-c3nccn3C)nc(Nc3cc(-n4ccnc4C)ccn3)c12 [Compound 246, 5-Methyl-N-(4-(2-methyl-1H-imidazol-1-yl)pyridin-2-yl)-2-(1-methyl-1H-imidazol-2-yl)-6-(1-methyl-1H-pyrazol-3-yl)pyrrolo[2,1-f][1,2,4]triazin-4-amine]	0 (0% inhibition)	0	25 to 49	C* (C* = 46-75% activation)	–
Cc1c(-c2ccn(C)n2)cn2nc(-c3nccn3C)nc(Nc3ccc(N4CCOCC4)cn3)c12 [Compound 247, 5-Methyl-2-(1-methyl-1H-imidazol-2-yl)-6-(1-methyl-1H-pyrazol-3-yl)-N-(5-morpholinopyridin-2-yl)pyrrolo[2,1-f][1,2,4]triazin-4-amine]	D* (85-100% activation)	50 to 74	75 to 100	C* (C* = 46-75% activation)	–
Cc1c(-c2ccn(C)n2)cn2nc(-c3nccn3C)nc(Nc3cc(-c4ccccn4)ccn3)c12 [Compound 248, N-([2,4′-Bipyridin]-2′-yl)-5-methyl-2-(1-methyl-1H-imidazol-2-yl)-6-(1-methyl-1H-pyrazol-3-yl)pyrrolo[2,1-f][1,2,4]triazin-4-amine]	C* (46-84% activation)	–	75 to 100	D* (D* = 76-100% activation)	25 to 49
Cc1c(-c2ccn(C)n2)cn2nc(-c3nccn3C)nc(Nc3ccc(-c4ccccn4)cn3)c12 [Compound 249, N-([2,3′-Bipyridin]-6′-yl)-5-methyl-2-(1-methyl-1H-imidazol-2-yl)-6-(1-methyl-1H-pyrazol-3-yl)pyrrolo[2,1-f][1,2,4]triazin-4-amine]	D* (85-100% activation)	1 to 24	75 to 100	0 (0 = 0% inhibition)	–
Cc1c(-c2ccn(C)n2)cn2nc(-c3nccn3C)nc(Nc3cc(-c4cccnc4)ccn3)c12 [Compound 250, N-([3,4′-Bipyridin]-2′-yl)-5-methyl-2-(1-methyl-1H-imidazol-2-yl)-6-(1-methyl-1H-pyrazol-3-yl)pyrrolo[2,1-f][1,2,4]triazin-4-amine]	C* (46-84% activation)	50 to 74	75 to 100	C* (C* = 46-75% activation)	–
COc1cc(Nc2nc(-c3nccn3C)nn3cc(-c4ccn(C)n4)c(C)c23)n[nH]1 [Compound 252, N-(5-Methoxy-1H-pyrazol-3-yl)-5-methyl-2-(1-methyl-1H-imidazol-2-yl)-6-(1-methyl-1H-pyrazol-3-yl)pyrrolo[2,1-f][1,2,4]triazin-4-amine]	A* (1-25% activation)	0	1 to 24	B* (B* = 26-45% activation)	–
COc1cc(Nc2nc(-c3nccn3C)nn3cc(-c4ccn(C)n4)c(C)c23)nn1C [Compound 253, N-(5-Methoxy-1-methyl-1H-pyrazol-3-yl)-5-methyl-2-(1-methyl-1H-imidazol-2-yl)-6-(1-methyl-1H-pyrazol-3-yl)pyrrolo[2,1-f][1,2,4]triazin-4-amine]	C* (46-84% activation)	0	25 to 49	A* (A* = 1-25% activation)	–
Cc1c(-c2ccn(C)n2)cn2nc(-c3nccn3C)nc(Nc3cc(OC(F)F)n(C)n3)c12 [Compound 254, N-(5-(Difluoromethoxy)-1-methyl-1H-pyrazol-3-yl)-5-methyl-2-(1-methyl-1H-imidazol-2-yl)-6-(1-methyl-1H-pyrazol-3-yl)pyrrolo[2,1-f][1,2,4]triazin-4-amine]	D* (85-100% activation)	0	25 to 49	B* (B* = 26-45% activation)	–
Cc1cc(Nc2nc(-c3nccn3C)nn3cc(-c4ccn(C)n4)c(C)c23)n[nH]1 [Compound 255, 5-Methyl-2-(1-methyl-1H-imidazol-2-yl)-6-(1-methyl-1H-pyrazol-3-yl)-N-(5-methyl-1H-pyrazol-3-yl)pyrrolo[2,1-f][1,2,4]triazin-4-amine]	A (1-25% inhibition)	1 to 24	50 to 74	D* (D* = 76-100% activation)	–
Cc1c(-c2ccn(C)n2)cn2nc(-c3nccn3C)nc(Nc3cc[nH]n3)c12 [Compound 256, 5-Methyl-2-(1-methyl-1H-imidazol-2-yl)-6-(1-methyl-1H-pyrazol-3-yl)-N-(1H-pyrazol-3-yl)pyrrolo[2,1-f][1,2,4]triazin-4-amine]	C (50-84% inhibition)	0	50 to 74	D* (D* = 76-100% activation)	–
Cc1c(-c2ccn(C)n2)cn2nc(-c3nccn3C)nc(Nc3cc(C4CCC4)[nH]n3)c12 [Compound 257, N-(5-Cyclobutyl-1H-pyrazol-3-yl)-5-methyl-2-(1-methyl-1H-imidazol-2-yl)-6-(1-methyl-1H-pyrazol-3-yl)pyrrolo[2,1-f][1,2,4]triazin-4-amine]	C* (46-84% activation)	25 to 49	75 to 100	D* (D* = 76-100% activation)	–
Cc1c(-c2ccn(C)n2)cn2nc(-c3nccn3C)nc(Nc3cc(C(F)F)[nH]n3)c12 [Compound 258, N-(5-(Difluoromethyl)-1H-pyrazol-3-yl)-5-methyl-2-(1-methyl-1H-imidazol-2-yl)-6-(1-methyl-1H-pyrazol-3-yl)pyrrolo[2,1-f][1,2,4]triazin-4-amine]	A* (1-25% activation)	0	0	A* (A* = 1-25% activation)	–
Cc1c(-c2ccn(C)n2)cn2nc(-c3nccn3C)nc(Nc3cc(C(F)(F)F)[nH]n3)c12 [Compound 259, 5-Methyl-2-(1-methyl-1H-imidazol-2-yl)-6-(1-methyl-1H-pyrazol-3-yl)-N-(5-(trifluoromethyl)-1H-pyrazol-3-yl)pyrrolo[2,1-f][1,2,4]triazin-4-amine]	A* (1-25% activation)	0	50 to 74	A (A = 1-25% inhibition)	–
CCOc1cc(Nc2nc(-c3nccn3C)nn3cc(-c4ccn(C)n4)c(C)c23)n[nH]1 [Compound 260, N-(5-Ethoxy-1H-pyrazol-3-yl)-5-methyl-2-(1-methyl-1H-imidazol-2-yl)-6-(1-methyl-1H-pyrazol-3-yl)pyrrolo[2,1-f][1,2,4]triazin-4-amine]	A* (1-25% activation)	25 to 49	75 to 100	A* (A* = 1-25% activation)	–
Cc1c(-c2ccn(C)n2)cn2nc(-c3nccn3C)nc(-n3[nH]c(N)cc3=O)c12 [Compound 261, 5-Amino-2-(5-methyl-2-(1-methyl-1H-imidazol-2-yl)-6-(1-methyl-1H-pyrazol-3-yl)pyrrolo[2,1-f][1,2,4]triazin-4-yl)-1,2-dihydro-3H-pyrazol-3-one]	B (26-49% inhibition)	1 to 24	50 to 74	B* (B* = 26-45% activation)	–
Cc1c(-c2ccn(C)n2)cn2nc(-c3nccn3C)nc(Oc3cc(N)[nH]n3)c12 [Compound 262, 3-((5-Methyl-2-(1-methyl-1H-imidazol-2-yl)-6-(1-methyl-1H-pyrazol-3-yl)pyrrolo[2,1-f][1,2,4]triazin-4-yl)oxy)-1H-pyrazol-5-amine]	A (1-25% inhibition)	0	1 to 24	B* (B* = 26-45% activation)	–
Cc1c(-c2ccn(C)n2)cn2nc(-c3nccn3C)nc(Nc3cc(-c4ccccc4)[nH]n3)c12 [Compound 263, 5-Methyl-2-(1-methyl-1H-imidazol-2-yl)-6-(1-methyl-1H-pyrazol-3-yl)-N-(5-phenyl-1H-pyrazol-3-yl)pyrrolo[2,1-f][1,2,4]triazin-4-amine]	A (1-25% inhibition)	50 to 74	75 to 100	C (C = 46-75% inhibition)	–
